Assay results published in article PMC11335262 (Cellular and Molecular Life Sciences: CMLS, 2024).
Where two headings read alike, the source gives them in different places.

Assays:
[1] = biological target: α9α10^α9Nt–TM2 (Rattus norvegicus, UniProt P43144+Q9JLB5, A103S/A128E/A130V/A141L/A146S/A160Y/A165S/A191G/A194S/A236S/A237S/A238F/A257S/A39E/A49E/A97Q/C241V/D100R/D263A/E60Q/E85T/F249L/G169N/G178N/G188L/G99D/H138Y/H177Y/H180N/H259Y/H92T/I284M/I67K/K96D/L182V/L205H/L214I/L245I/L252F/L278M/L285V/L78A/N199D/N40D/P126S/P127S/P186N/P95R/Q125E/Q53A/R109D/R143T/R151K/R155V/R167Q/R185F/R187A/R203E/R210V/R211K/R212N/R233K/R35S/S129P/S131N/S159T/S192D/T124D/T189D/T215S/T42S/T54V/T87H/V136L/V142I/V184I/V197I/V240I/V274I/V75I); format: cell-based; settings: 30 µM ACh; for ACh response, % of response at […] Ca^2+: Vhold -90
[2] = biological target: α9α10E201Q (Rattus norvegicus, UniProt P43144+Q9JLB5, E201Q); format: cell-based
[3] = biological target: α9α10^α9Nt (Rattus norvegicus, UniProt P43144+Q9JLB5, A103S/A128E/A130V/A141L/A146S/A160Y/A165S/A191G/A194S/A39E/A49E/A97Q/D100R/E60Q/E85T/G169N/G178N/G188L/G99D/H138Y/H177Y/H180N/H92T/I67K/K96D/L182V/L205H/L214I/L78A/N199D/N40D/P126S/P127S/P186N/P95R/Q125E/Q53A/R109D/R143T/R151K/R155V/R167Q/R185F/R187A/R203E/R210V/R211K/R212N/R233K/R35S/S129P/S131N/S159T/S192D/T124D/T189D/T215S/T42S/T54V/T87H/V136L/V142I/V184I/V197I/V75I); format: cell-based; settings: 10 µM ACh; for ACh response, % of response at […] Ca^2+: Vhold -90
[4] = biological target: α9α10^α9Nt–TM2TM3loop (Rattus norvegicus, UniProt P43144+Q9JLB5); format: cell-based; settings: for ACh response, % of response at […] Ca^2+: Vhold -90
[5] = biological target: α9α10^α9Nt–TM1TM2loop (Rattus norvegicus, UniProt P43144+Q9JLB5, A103S/A128E/A130V/A141L/A146S/A160Y/A165S/A191G/A194S/A236S/A237S/A238F/A257S/A39E/A49E/A97Q/C241V/D100R/D263A/E60Q/E85T/F249L/G169N/G178N/G188L/G99D/H138Y/H177Y/H180N/H259Y/H92T/I67K/K96D/L182V/L205H/L214I/L245I/L252F/L78A/N199D/N40D/P126S/P127S/P186N/P95R/Q125E/Q53A/R109D/R143T/R151K/R155V/R167Q/R185F/R187A/R203E/R210V/R211K/R212N/R233K/R35S/S129P/S131N/S159T/S192D/T124D/T189D/T215S/T42S/T54V/T87H/V136L/V142I/V184I/V197I/V240I/V75I); format: cell-based; settings: 40 µM ACh; for ACh response, % of response at […] Ca^2+: Vhold -90
[6] = test system: homomeric α9 nAChR; settings: cited from earlier work
[7] = biological target: α9α10^α9extra (Rattus norvegicus, UniProt P43144+Q9JLB5, A264D/A308T/A312F/A328P/E329N/F253L/F325Y/H335A/I246L/I275V/I304M/I310V/I323L/L250F/L309M/M279L/M285I/M319L/R331H/S258A/V286L/V320I/Y260H); format: cell-based; settings: for ACh response, % of response at […] Ca^2+: Vhold -90
[8] = biological target: α9α10^α9TM2TM3loop (Rattus norvegicus, UniProt P43144+Q9JLB5, A292S/P291A/S288I/S294N); format: cell-based; settings: for ACh response, % of response at […] Ca^2+: Vhold -90
[9] = biological target: α9α10E287Q (Rattus norvegicus, UniProt P43144+Q9JLB5, E287Q); format: cell-based
[10] = biological target: α9α10 nAChR (Rattus norvegicus, UniProt P43144+Q9JLB5); format: cell-based; settings: 10 µM ACh; for ACh response, % of responses at […] Ca^2+: Vhold -90
[11] = biological target: α9α10E71Q (Rattus norvegicus, UniProt P43144+Q9JLB5, E71Q); format: cell-based
[12] = read-out: Ca^2+ IC50, block of responses to 100 µM ACh

## [Ca+2] [Ca^2+, Calcium]
[1]
  modulation of ACh-evoked responses by extracellular Ca^2+ (in words): potentiated by Ca^2+ up to 0.2 mM and blocked by higher concentrations
[1]; 0.2 mM Ca^2+
  ACh response, % of response at […] Ca^2+: 322.0 ± 40.0%
[1]; 3 mM Ca^2+
  ACh response, % of response at […] Ca^2+: 69.5 ± 7.6%
[1]; +40 mV
  0.2 / 0 Ca^2+ ratio of response amplitudes: 2.8 ± 0.4
[1]; -90 mV
  0.2 / 0 Ca^2+ ratio of response amplitudes: 4.1 ± 0.2
[1]; nominally zero Ca^2+
  ACh response, % of response at […] Ca^2+: 132.4 ± 27.5%
[2]; 100 µM ACh
  modulation of ACh-evoked responses by extracellular Ca^2+ (in words): not potentiated by Ca^2+
[2]; 3 mM Ca^2+, 100 µM ACh
  ACh response, % of response at […] Ca^2+: 74.3 ± 11.2%
[2]; +40 mV, 100 µM ACh
  3 / 0 Ca^2+ ratio of response: 0.53 ± 0.12
[2]; -90 mV, 100 µM ACh
  3 / 0 Ca^2+ ratio of response: 0.18 ± 0.05
[2]; [12]
  IC50: 900 ± 300 µM
[2]; zero Ca^2+, 100 µM ACh
  ACh response, % of response at […] Ca^2+: 201.6 ± 39.7%
[3]
  modulation of ACh-evoked responses by extracellular Ca^2+ (in words): potentiated by Ca^2+ up to 0.2 mM and blocked by higher concentrations
[3]; 0.2 mM Ca^2+
  ACh response, % of response at […] Ca^2+: 225.8 ± 18.9%
[3]; 3 mM Ca^2+
  ACh response, % of response at […] Ca^2+: 64.9 ± 5.9%
[3]; +40 mV
  0.2 / 0 Ca^2+ ratio of response amplitudes: 2.5 ± 0.3
[3]; -90 mV
  0.2 / 0 Ca^2+ ratio of response amplitudes: 2.1 ± 0.4
[3]; nominally zero Ca^2+
  ACh response, % of response at […] Ca^2+: 115.2 ± 27.3%
[4]; 5 µM ACh
  modulation of ACh-evoked responses by extracellular Ca^2+ (in words): only blocked by increasing Ca^2+ concentrations
[4]; 3 mM Ca^2+, 5 µM ACh
  ACh response, % of response at […] Ca^2+: 108.1 ± 10.7%
[4]; +40 mV, 5 µM ACh
  3 / 0 Ca^2+ ratio of response: 1.2 ± 0.3
[4]; -90 mV, 5 µM ACh
  3 / 0 Ca^2+ ratio of response: 0.20 ± 0.03
[4]; read-out: Ca^2+ IC50, block of responses to 5 µM ACh, -90 mV
  IC50: 500 ± 100 µM
[4]; zero Ca^2+, 5 µM ACh
  ACh response, % of response at […] Ca^2+: 611.3 ± 91.2%
[5]
  modulation of ACh-evoked responses by extracellular Ca^2+ (in words): potentiated by Ca^2+ up to 0.2 mM and blocked by higher concentrations
[5]; 0.2 mM Ca^2+
  ACh response, % of response at […] Ca^2+: 358.3 ± 32.4%
[5]; 3 mM Ca^2+
  ACh response, % of response at […] Ca^2+: 73.5 ± 9.3%
[5]; +40 mV
  0.2 / 0 Ca^2+ ratio of response amplitudes: 5.9 ± 2.6
[5]; -90 mV
  0.2 / 0 Ca^2+ ratio of response amplitudes: 5.4 ± 2.4
[5]; nominally zero Ca^2+
  ACh response, % of response at […] Ca^2+: 95.2 ± 18.8%
[6]; […] Ca^2+, 100 µM ACh, Vhold -70, homomeric α9
  ACh response amplitude normalized to 0 mM Ca^2+ (Imax): 5.63 ± 0.58%
[6]; rat α9 nAChRs
  modulation of ACh-evoked responses by extracellular Ca^2+ (in words): only blocked by this ion
[6]; read-out: Ca^2+ IC50 (50% of response block), homomeric α9, -70 mV
  IC50: 100 ± 10 µM
[7]; 10 µM ACh
  modulation of ACh-evoked responses by extracellular Ca^2+ (in words): not potentiated by Ca^2+, and only blocked by increasing Ca^2+ concentrations
[7]; 3 mM Ca^2+, 10 µM ACh
  ACh response, % of response at […] Ca^2+: 72.3 ± 5.3%
[7]; +40 mV, 10 µM ACh
  3 / 0 Ca^2+ ratio of response: 0.60 ± 0.08
[7]; -90 mV, 10 µM ACh
  3 / 0 Ca^2+ ratio of response: 0.20 ± 0.05
[7]; read-out: Ca^2+ IC50, block of responses to 10 µM ACh, -90 mV
  IC50: 700 ± 200 µM
[7]; zero Ca^2+, 10 µM ACh
  ACh response, % of response at […] Ca^2+: 217.3 ± 6.3%
[8]; 50 µM ACh
  modulation of ACh-evoked responses by extracellular Ca^2+ (in words): not potentiated by extracellular Ca^2+, but instead blocked by this ion
[8]; 3 mM Ca^2+, 50 µM ACh
  ACh response, % of response at […] Ca^2+: 71.3 ± 5.2%
[8]; 3 mM Ca^2+, sub-EC50 25 µM ACh
  ACh response, % of response at […] Ca^2+: 46.3 ± 20.9%
[8]; +40 mV, 50 µM ACh
  3 / 0 Ca^2+ ratio of response: 0.74 ± 0.14
[8]; -90 mV, 50 µM ACh
  3 / 0 Ca^2+ ratio of response: 0.14 ± 0.02
[8]; zero Ca^2+, 50 µM ACh
  ACh response, % of response at […] Ca^2+: 401.0 ± 103.4%
[8]; zero Ca^2+, sub-EC50 25 µM ACh
  ACh response, % of response at […] Ca^2+: 668.7 ± 340.2%
[9]; 20 µM ACh
  modulation of ACh-evoked responses by extracellular Ca^2+ (in words): not potentiated by Ca^2+
[9]; 3 mM Ca^2+, 20 µM ACh
  ACh response, % of response at […] Ca^2+: 67.6 ± 5.6%
[9]; +40 mV, 20 µM ACh
  3 / 0 Ca^2+ ratio of response: 0.48 ± 0.04
[9]; -90 mV, 20 µM ACh
  3 / 0 Ca^2+ ratio of response: 0.26 ± 0.02
[9]; read-out: Ca^2+ IC50, block of responses to 20 µM ACh
  IC50: 300 ± 100 µM
[9]; zero Ca^2+, 20 µM ACh
  ACh response, % of response at […] Ca^2+: 320.7 ± 97.4%
[10]
  modulation of ACh-evoked responses by extracellular Ca^2+ (in words): potentiated by sub-millimolar Ca^2+ concentrations
[10]; 0.5 mM Ca^2+ (maximum)
  ACh response, % of responses at […] Ca^2+: 142.98 ± 10.12%
[10]; nominally zero Ca^2+
  ACh response, % of responses at […] Ca^2+: 16.79 ± 6.47%
[11]; 100 µM ACh
  modulation of ACh-evoked responses by extracellular Ca^2+ (in words): not potentiated by Ca^2+
[11]; 3 mM Ca^2+, 100 µM ACh
  ACh response, % of response at […] Ca^2+: 64.8 ± 2.7%
[11]; +40 mV, 100 µM ACh
  3 / 0 Ca^2+ ratio of response: 1.05 ± 0.29
[11]; -90 mV, 100 µM ACh
  3 / 0 Ca^2+ ratio of response: 0.25 ± 0.05
[11]; [12]
  IC50: 800 ± 100 µM
[11]; zero Ca^2+, 100 µM ACh
  ACh response, % of response at […] Ca^2+: 211.0 ± 35.6%
